# Assay results from ChEMBL document CHEMBL1201862, “PubChem BioAssay data set” (2004).
# Calls of active or inactive are those of the source.
# What was measured:
# [1] = target: T1, DNA repair protein RAD52 homolog (Homo sapiens, UniProt P43351); format: functional, biochemical
# T1 sequence (P43351 whole entry): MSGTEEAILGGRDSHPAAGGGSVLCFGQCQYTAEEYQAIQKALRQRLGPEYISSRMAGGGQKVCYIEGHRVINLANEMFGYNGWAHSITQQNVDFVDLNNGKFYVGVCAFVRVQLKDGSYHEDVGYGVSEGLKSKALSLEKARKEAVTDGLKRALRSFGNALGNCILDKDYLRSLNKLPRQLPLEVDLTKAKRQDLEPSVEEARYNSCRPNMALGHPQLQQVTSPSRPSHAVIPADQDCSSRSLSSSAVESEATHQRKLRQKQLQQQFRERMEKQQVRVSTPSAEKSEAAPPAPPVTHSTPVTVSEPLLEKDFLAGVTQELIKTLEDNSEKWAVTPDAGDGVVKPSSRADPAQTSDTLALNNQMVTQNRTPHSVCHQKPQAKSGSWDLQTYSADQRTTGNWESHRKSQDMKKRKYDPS
# [2] = NIH-3T3 fibroblast cytotoxicity, dose response, cytotoxicity control, cell-based, fluorescence, Alamar Blue, secondary assay (AID 2327); format: functional;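 note: NIH-3T3 mouse fibroblasts cultured with fluconazole at 8 µg/mL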
# [3] = target: T2, Ubiquitin-conjugating enzyme E2 N (Homo sapiens, UniProt P61088); format: functional;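 note: Dose-response confirmation in a TR-FRET assay detecting UBC13-driven polyubiquitin chain formation, inhibition measured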
# T2 sequence (P61088 whole entry): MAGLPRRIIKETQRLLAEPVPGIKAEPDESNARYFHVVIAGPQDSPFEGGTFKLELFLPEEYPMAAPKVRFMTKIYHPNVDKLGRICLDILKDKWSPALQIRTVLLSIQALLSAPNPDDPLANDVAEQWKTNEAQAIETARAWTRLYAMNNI
# [4] = target: Eukaryotic translation initiation factor 4E (Mus musculus, UniProt P63073); assay: eIF4E–eIF4G protein interaction inhibitors, dose response, biochemical, TR-FRET (AID 855); format: functional;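 note: potency for disrupting eIF4E binding to eIF4GI seen as loss of FRET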
# Eukaryotic translation initiation factor 4E, sequence (P63073 whole entry): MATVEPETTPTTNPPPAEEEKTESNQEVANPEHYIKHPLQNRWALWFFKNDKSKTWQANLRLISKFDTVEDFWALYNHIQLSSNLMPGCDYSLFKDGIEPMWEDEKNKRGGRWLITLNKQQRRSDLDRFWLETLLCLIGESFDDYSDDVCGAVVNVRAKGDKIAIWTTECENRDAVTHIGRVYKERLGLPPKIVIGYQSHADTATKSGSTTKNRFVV
# [5] = A Cell Based Secondary Assay To Explore Cytotoxicity of Compounds that Sensitize Mycobacterium Tuberculosis to Beta-Lactam Antibiotics.; format: functional
# [6] = HEp-2 cell cytotoxicity, dose response, cytotoxicity control for RSV inhibitor project, HTS (AID 2410); format: functional; details: human respiratory syncytial virus
# cells [7] = assay: cells
# Protein RecA = target: T3, Protein RecA (Mycobacterium tuberculosis, UniProt P9WHJ3); assay: Fluorescence Cell-Free Homogeneous Dose Retest to Identify Inhibitors of RecA-Intein Splicing Activity. [Related pubchem assays (depositor defined):AID2097, AID2223, AID489010, AID492950]; format: functional
# T3 sequence (P9WHJ3 whole entry): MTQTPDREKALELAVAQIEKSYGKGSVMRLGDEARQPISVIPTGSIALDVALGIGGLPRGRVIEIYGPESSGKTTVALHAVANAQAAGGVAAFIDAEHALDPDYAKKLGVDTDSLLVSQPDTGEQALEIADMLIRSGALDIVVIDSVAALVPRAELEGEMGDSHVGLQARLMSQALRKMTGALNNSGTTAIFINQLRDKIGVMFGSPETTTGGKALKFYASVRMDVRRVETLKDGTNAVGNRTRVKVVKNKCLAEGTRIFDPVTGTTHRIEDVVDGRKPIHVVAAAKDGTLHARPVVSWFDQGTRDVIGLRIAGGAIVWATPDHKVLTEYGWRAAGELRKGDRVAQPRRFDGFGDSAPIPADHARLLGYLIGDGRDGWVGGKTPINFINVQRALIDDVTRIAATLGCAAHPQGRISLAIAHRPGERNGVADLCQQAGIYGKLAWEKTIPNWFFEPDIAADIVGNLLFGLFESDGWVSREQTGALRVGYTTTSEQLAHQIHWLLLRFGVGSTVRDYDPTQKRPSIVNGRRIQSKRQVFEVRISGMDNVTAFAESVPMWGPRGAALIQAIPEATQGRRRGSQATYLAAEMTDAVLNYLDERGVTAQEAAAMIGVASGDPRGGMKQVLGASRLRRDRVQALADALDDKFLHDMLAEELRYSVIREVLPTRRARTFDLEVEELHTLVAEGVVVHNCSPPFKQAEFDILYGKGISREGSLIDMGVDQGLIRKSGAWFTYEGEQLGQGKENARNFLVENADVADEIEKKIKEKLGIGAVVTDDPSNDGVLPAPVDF
# Large T antigen = Large T antigen (Simian virus 40, UniProt P03070); format: functional, Betapolyomavirus macacae;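 note: Confirmatory-stage PubChem screen for compounds that inhibit SV40 T antigen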
# Large T antigen, sequence (P03070 whole entry): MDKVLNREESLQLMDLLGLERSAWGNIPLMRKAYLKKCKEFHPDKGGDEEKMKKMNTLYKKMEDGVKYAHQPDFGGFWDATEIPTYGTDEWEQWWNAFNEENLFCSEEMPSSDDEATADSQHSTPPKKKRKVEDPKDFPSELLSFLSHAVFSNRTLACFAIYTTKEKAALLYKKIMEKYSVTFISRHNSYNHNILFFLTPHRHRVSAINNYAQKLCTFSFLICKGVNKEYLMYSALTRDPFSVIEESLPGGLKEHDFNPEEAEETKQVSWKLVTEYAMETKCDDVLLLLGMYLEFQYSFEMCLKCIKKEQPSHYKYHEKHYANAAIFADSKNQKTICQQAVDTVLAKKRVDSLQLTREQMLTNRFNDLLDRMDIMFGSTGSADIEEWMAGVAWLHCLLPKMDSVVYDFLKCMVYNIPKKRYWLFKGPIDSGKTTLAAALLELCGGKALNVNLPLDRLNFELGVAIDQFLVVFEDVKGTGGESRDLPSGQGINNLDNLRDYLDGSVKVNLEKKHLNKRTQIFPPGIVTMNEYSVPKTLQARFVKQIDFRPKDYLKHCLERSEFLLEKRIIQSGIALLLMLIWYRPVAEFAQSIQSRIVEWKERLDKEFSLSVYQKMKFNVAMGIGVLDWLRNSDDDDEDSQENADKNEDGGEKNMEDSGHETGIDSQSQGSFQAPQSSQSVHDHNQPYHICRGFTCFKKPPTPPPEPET
# Nonstructural protein 1 = Nonstructural protein 1 (Influenza A virus, UniProt Q194T2); format: functional, Influenza A virus (A/California/07/2009(H1N1))
# Nonstructural protein 1, sequence (Q194T2 whole entry): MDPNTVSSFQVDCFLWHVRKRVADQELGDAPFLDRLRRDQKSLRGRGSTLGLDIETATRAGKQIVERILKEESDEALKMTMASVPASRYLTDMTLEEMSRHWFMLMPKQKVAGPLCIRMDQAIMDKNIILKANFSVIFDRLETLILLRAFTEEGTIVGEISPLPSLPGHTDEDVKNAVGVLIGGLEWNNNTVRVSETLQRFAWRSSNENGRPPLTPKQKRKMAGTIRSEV
# [8] = HeLa cell cytotoxicity, dose response, cytotoxicity control for MgcRacGAP inhibitor project (AID 624300); format: functional
# [9] = target: T4, Replicative DNA helicase DnaB (Mycobacterium tuberculosis, UniProt P9WMR3); assay: DnaB intein splicing inhibitors, dose response, biochemical, cell-free fluorescence (AID 449749); format: functional
# T4 sequence (P9WMR3 whole entry): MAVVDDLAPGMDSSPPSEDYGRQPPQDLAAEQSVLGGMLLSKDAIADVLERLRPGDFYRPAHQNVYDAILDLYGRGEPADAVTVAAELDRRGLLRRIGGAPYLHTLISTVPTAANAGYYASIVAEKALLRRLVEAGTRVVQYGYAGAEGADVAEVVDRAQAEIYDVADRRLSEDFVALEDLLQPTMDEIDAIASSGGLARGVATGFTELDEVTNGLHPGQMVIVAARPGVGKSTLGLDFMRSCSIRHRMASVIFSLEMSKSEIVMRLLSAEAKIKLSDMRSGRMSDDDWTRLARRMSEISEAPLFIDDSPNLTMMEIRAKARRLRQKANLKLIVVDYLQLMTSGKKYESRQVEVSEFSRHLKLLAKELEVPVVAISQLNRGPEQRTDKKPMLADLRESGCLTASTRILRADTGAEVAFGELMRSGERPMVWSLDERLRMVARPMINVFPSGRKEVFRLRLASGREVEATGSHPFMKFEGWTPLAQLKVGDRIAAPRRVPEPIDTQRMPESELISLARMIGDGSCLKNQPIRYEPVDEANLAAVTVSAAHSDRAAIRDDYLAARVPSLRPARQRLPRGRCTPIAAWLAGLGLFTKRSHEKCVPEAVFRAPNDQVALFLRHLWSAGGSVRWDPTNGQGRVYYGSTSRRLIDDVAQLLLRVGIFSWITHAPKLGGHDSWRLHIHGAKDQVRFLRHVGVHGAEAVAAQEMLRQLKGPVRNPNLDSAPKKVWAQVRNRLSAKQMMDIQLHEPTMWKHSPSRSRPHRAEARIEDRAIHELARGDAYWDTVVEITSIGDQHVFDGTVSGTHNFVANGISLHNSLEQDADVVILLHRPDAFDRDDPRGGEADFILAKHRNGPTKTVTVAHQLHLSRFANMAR
# [10] = target: T5, Microphthalmia-associated transcription factor (Homo sapiens, UniProt O75030); assay: TRPM1 promoter luciferase signal decrease, dose response, MITF inhibitor project, cell-based, SK-MEL-5, cherry-picked, set 3 (AID 493073); format: functional
# T5 sequence (O75030 whole entry): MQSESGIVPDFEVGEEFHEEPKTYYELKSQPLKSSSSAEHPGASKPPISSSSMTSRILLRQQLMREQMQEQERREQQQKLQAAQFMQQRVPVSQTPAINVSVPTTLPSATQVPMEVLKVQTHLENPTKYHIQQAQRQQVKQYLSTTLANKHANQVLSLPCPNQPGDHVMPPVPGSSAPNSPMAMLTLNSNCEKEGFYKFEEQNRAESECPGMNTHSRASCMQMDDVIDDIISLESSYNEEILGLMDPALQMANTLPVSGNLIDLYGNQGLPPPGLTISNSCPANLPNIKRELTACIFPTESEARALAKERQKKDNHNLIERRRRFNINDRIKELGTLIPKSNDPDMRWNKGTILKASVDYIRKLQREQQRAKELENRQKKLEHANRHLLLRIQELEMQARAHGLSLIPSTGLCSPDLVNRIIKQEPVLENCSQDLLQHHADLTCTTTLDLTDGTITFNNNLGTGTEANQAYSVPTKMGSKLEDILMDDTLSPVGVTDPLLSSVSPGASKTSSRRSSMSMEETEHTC
# [11] = target: T6, Rac GTPase-activating protein 1 (Homo sapiens, UniProt Q9H0H5); assay: MgcRacGAP GTPase-activating activity inhibitors, confirmation, biochemical, ADP Hunter fluorescence, primary and confirmatory (AID 624330); format: functional
# T6 sequence (Q9H0H5 whole entry): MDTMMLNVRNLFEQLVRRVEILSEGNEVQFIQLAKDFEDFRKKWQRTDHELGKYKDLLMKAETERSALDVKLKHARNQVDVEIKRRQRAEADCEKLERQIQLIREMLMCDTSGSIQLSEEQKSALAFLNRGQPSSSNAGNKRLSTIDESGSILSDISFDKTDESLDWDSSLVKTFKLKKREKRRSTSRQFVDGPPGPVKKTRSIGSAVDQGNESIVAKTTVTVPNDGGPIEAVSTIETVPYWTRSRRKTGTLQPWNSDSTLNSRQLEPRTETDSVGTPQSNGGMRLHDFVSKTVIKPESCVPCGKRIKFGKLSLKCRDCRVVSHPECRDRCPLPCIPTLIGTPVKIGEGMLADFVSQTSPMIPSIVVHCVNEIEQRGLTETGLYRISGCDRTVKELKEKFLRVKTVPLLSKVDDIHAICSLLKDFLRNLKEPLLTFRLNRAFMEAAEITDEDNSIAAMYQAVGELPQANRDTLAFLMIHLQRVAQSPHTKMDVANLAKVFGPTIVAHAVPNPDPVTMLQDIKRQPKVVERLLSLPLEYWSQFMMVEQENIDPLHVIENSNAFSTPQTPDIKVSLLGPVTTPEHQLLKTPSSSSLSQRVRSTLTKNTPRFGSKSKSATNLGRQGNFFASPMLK
# [12] = Luminescence Cell-Based Dose Confirmation HTS to Identify Inhibitors of Platelet Dense Granule Release. [Related pubchem assays: 1663 (Primary HTS), 1678 (Summary of Project)]; format: functional
# [13] = target: Luciferin 4-monooxygenase (Photinus pyralis, UniProt P08659); assay: firefly luciferase enzyme inhibitors, dose response, biochemical, luminescence (AID 1891)
# Luciferin 4-monooxygenase, sequence (P08659 whole entry): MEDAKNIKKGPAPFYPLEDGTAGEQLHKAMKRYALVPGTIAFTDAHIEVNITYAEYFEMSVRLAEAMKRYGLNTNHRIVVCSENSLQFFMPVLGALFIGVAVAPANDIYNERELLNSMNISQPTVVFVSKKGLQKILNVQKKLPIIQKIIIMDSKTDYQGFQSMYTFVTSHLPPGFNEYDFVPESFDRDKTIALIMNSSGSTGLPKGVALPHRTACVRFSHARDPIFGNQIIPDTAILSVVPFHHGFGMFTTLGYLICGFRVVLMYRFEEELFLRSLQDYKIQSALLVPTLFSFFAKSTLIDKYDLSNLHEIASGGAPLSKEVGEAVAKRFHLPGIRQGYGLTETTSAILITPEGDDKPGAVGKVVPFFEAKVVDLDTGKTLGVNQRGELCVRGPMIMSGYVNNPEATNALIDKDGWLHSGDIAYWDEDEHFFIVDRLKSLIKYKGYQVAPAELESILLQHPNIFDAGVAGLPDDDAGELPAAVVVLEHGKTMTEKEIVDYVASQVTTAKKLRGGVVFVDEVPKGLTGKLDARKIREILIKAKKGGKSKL
# [14] = target: Heat shock protein HSP 90-alpha (Homo sapiens, UniProt P07900); format: functional, organism-based
# Steroidogenic factor 1 = Steroidogenic factor 1 (Homo sapiens, UniProt Q13285); assay: Counterscreen for inverse agonists of the liver receptor homolog-1 (LRH-1; NR5A2): Luminescence-based cell-based high throughput dose response assay to identify inverse agonists of the Steroidogenic Factor 1 Nuclear Receptor (SF1; NR5A1).; format: functional
# Steroidogenic factor 1, sequence (Q13285 whole entry): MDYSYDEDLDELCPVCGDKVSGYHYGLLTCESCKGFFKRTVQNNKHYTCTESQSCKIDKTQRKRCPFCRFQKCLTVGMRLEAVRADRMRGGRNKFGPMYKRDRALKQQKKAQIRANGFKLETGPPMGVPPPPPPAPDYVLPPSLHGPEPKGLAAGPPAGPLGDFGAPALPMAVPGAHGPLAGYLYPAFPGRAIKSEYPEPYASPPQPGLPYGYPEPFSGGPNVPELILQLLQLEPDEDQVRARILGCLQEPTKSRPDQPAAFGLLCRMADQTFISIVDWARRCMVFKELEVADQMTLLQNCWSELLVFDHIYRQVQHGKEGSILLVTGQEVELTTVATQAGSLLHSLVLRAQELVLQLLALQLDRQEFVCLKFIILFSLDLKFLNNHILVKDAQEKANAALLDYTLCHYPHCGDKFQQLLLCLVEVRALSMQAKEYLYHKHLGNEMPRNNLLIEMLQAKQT
# [15] = StAR promoter reporter inhibition counter-screen, dose response, counter-screen for LRH-1 inverse agonist project, cell-based, luminescence, luciferase reporter (AID 651969); format: functional
# [16] = target: Nuclear receptor subfamily 5 group A member 2 (Homo sapiens, UniProt O00482); format: functional, cell-based;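 note: HEK293T cells transfected with LRH-1 and a StAR promoter luciferase reporter; potency for inhibitors that lower LRH-1 driven reporter light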
# Nuclear receptor subfamily 5 group A member 2, sequence (O00482 whole entry): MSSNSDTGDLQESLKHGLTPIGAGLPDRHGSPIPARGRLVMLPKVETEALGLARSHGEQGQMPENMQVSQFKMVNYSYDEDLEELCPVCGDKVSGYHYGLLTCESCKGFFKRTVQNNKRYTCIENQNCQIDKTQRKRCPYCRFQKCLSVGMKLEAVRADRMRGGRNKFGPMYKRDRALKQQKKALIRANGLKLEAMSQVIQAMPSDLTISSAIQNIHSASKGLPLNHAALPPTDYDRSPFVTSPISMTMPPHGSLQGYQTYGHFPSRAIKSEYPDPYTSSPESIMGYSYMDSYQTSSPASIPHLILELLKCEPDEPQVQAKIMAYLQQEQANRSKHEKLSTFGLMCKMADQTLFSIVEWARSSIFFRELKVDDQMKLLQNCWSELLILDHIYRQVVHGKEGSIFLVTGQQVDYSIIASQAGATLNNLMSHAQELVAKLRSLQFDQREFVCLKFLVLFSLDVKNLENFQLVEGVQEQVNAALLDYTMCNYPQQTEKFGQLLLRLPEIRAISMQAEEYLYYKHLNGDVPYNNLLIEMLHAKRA
# Paired box protein Pax-8 = Paired box protein Pax-8 (Homo sapiens, UniProt Q06710); assay: inhibitors of PAX8-driven TPO luciferase reporter, dose response, RMG-I cells, cherry-pick (AID 687027); format: functional, cell-based;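 note: luciferase reporter driven by Pax8 target thyroperoxidase promoter measured by SteadyGlo luminescence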
# Paired box protein Pax-8, sequence (Q06710 whole entry): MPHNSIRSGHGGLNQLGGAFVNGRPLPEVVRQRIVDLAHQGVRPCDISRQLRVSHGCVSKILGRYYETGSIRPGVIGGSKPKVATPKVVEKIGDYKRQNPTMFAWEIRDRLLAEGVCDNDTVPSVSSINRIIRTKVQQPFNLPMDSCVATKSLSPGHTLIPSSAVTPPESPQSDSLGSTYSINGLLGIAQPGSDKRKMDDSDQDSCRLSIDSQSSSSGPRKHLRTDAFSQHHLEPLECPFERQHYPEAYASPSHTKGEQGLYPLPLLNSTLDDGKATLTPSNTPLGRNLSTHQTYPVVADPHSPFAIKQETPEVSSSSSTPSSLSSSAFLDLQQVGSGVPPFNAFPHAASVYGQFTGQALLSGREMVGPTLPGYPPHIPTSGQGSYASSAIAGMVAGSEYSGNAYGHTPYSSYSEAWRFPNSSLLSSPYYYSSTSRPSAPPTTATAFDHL
# [17] = C. albicans growth with fluconazole, confirmation, fluorescence, retest (AID 2467); format: functional, cell-based
# cells [18] = format: functional, cell-based
# cells [19] = format: functional, cell-based; remark: listed apart in the source
structure (smiles),measurement,setting,value
COc1ccc2c(c1O)-c1cccc3c1[C@@H](C2)N(C)CC3,AC50,[1],10.7 µM (active)
NC1=NC[C@H](Cc2ccc(O)cc2)N1CCC12CC3CC(CC(C3)C1)C2,EC50,[2],> 160 µM (inactive)
same,AC50,[1],18.5 µM (active)
same,IC50,[3],> 20 µM (inactive)
CC(C)c1ccc(CN2CCC(C(=O)NCc3cccnc3)CC2)cc1,IC50,[4],> 64 µM (inactive)
Cc1cccc(C)c1-n1c(C)cc(/C=C2\C(=O)NN(c3ccccc3)C2=O)c1C,CC50,[5],> 40 µM (active)
same,CC50,[6],36.6 µM (active)
same,IC50,cells [7],7.55 µM (active)
COC1=C(Nc2ccc(O)cc2)C(=O)c2ccccc2C1=O,EC50,Protein RecA,1.16 µM (active)
same,IC50,Large T antigen,9.88 µM (active)
same,IC50,Nonstructural protein 1,24.7 µM (active)
same,CC50,[8],56.8 µM (active)
same,AC50,[9],> 380 µM (inactive)
same,AC50,[10],5.14 µM (active)
same,IC50,[11],24.4 µM (active)
CCN(CC)CC(O)Cn1c(C)c(-c2ccccc2)c2cc([N+](=O)[O-])ccc21 (stereo not given),AC50,[1],8.3 µM (active)
CCOc1ccccc1CN(CCc1ccc2c(c1)OCO2)Cc1ccccn1,EC50,[12],> 112 µM (not active)
same,CC50,[8],100 µM (active)
same,IC50,[11],172 µM (active)
same,EC50,[13],> 112 µM (not active)
O=C(NN1CCOCC1)c1cc(-c2ccc(Br)cc2)nc2ccccc12,IC50,[4],> 64 µM (inactive)
CCN1/C(=C/c2ccc3cc(C)ccc3[n+]2CC)Sc2cc(C)ccc21,AC50,[14],3.75 µM (active)
same,CC50,[8],23.1 µM (active)
same,IC50,[11],80.4 µM (active)
Cc1ccc(C(=O)CSc2ncnc3sc4c(c23)CCCC4)cc1,IC50,[4],> 64 µM (inactive)
COc1cc2nc(N(CCCN(C)C)C(=O)c3ccc(C(=O)c4ccccc4)cc3)sc2cc1OC,AC50,[1],15.8 µM (active)
CCCS(=O)(=O)N1CCN(S(=O)(=O)c2ccccc2)CC1,IC50,[4],> 64 µM (inactive)
O=C(Nc1cccc(Cl)c1N1CCOCC1)c1ccc([N+](=O)[O-])o1,CC50,[5],> 40 µM (active)
NS(=O)(=O)c1ccc(O)c(NC(=O)c2ccc([N+](=O)[O-])o2)c1,IC50,Steroidogenic factor 1,1.52 µM (active)
same,IC50,[15],35.9 µM (inactive)
same,IC50,[16],4.16 µM (active)
same,CC50,[5],> 40 µM (active)
CN(C)CCOc1ccc2c(c1)C(=O)C(=Cc1ncc([N+](=O)[O-])n1C)C2,AC50,[1],7.08 µM (active)
same,AC50,Paired box protein Pax-8,1.89 µM (active)
CCN(CC)S(=O)(=O)c1ccc(N/N=C(\C)c2ccc(OC)cc2O)nc1,EC50,[2],5.47 µM (active)
same,CC50,[5],3.86 µM (active)
same,EC50,[17],> 38 µM (not active)
same,EC50,cells [18],29.1 µM (active)
same,EC50,cells [19],> 350 µM (not active)
O=C(N/N=C/c1cc([N+](=O)[O-])ccc1O)C1CC1,CC50,[5],> 40 µM (active)
